Entries after “also recorded” stand apart in the source; their conditions may differ.
Columns and labels:
[1] = molecular target: T1, protein tyrosine phosphatase (PTP), particularly PTP1B (Homo sapiens, UniProt P18031); details: Pathak & Yi 2001; cited from earlier work
T1 sequence (P18031 1-435): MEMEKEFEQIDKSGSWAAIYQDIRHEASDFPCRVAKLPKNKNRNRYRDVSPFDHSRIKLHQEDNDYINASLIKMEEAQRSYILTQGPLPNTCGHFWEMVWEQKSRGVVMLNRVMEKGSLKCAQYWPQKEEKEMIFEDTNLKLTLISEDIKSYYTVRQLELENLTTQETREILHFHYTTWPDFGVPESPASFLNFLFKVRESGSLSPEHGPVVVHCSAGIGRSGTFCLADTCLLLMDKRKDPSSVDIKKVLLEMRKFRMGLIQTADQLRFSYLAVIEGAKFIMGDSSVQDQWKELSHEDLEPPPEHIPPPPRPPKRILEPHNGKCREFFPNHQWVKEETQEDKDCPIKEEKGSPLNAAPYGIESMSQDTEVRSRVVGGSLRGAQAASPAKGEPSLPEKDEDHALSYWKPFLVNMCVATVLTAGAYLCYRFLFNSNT

[2] = tested on: purified human CD4+ T cells; test: Anti-TCR induced proliferation ([3H]-thymidine) of CD4-ligated purified CD4+ T cells, rescue by cytokines; type: cell-based; details: for reversal of inhibition of proliferation at higher cytokine concentrations: up to 80 U/ml, data not shown; for anti-TCR induced proliferative response of CD4-ligated T cells: 20 U/ml cytokine, gp120 or anti-CD4 ligation before plate-bound anti-TCR, 3 days, FIG. 1
Description: Heparinized venous blood from healthy adult human donors was separated on a Ficoll-Paque (Pharmacia Biotech) gradient to obtain lymphocytes. CD4^+ T cells were isolated by incubation with anti-CD8 mAb (OKT8, 20 Ag/ml, ATCC), followed by negative selection on goat anti-mouse IgG coated Immulan beads (Biotecx Laboratories).
Specifically, the purified CD4^+ T cells in balanced salts solution were incubated with or without gp120 (rgp120SF2, 10 μg/ml) and crosslinked with anti-gp120 antibody (1:250 dilution) or anti-CD4 mAb (anti-CD4, Leu-3α, 20 μg/ml) for 1 hr at 37° C.
Proliferation in response to plate-bound anti-TCR was determined as follows. Cells were washed, resuspended in RPMI-1640 culture media (GIBCO) supplemented with 10% fetal bovine serum (FBS, Gemini BioProducts) and 1×10^5 cells were added to triplicate wells of an anti-T cell receptor monoclonal antibody-coated (anti-TCR, BMA-031, 50 μg/ml) 96-well plate (Becton Dickinson). […] Culture plates were incubated for 3 days at 37° C. with 1 μCi/Well [^3H]-thymidine (NEN) present during the final 5 hours of culture. The cells were harvested and processed to determine ^3H-thymidine incorporation.

JAK3 [3] = test: JAK3 expression (Western blot) in mock- or HIV-1 NL4-3-infected CD4+ T cell PHA blasts; type: cell-based, human; details: 20 U/ml, 48 hours
Description: In this experiment, purified human CD4^+ T cells isolated as described above and activated with PHA for 3 days were infected for 4 days with a laboratory cloned strain of HIV-1, NL4-3. […] Cells were harvested and lysed with TBS/1% NP40 and analyzed on 7.5% SDS PAGE. Western blots using anti-JAK3 or anti-actin were prepared as described in Example 3.

JAK3 [4] = test: JAK3 expression and tyrosine phosphorylation (immunoprecipitation/Western blot) in TCR/CD3-stimulated CD4+ T cells with or without prior CD4 ligation; type: cell-based, human; details: for reversal of gp120 or anti-CD4 induced inhibition of JAK3 expression and activation: 20 U/ml cytokine, FIG. 4
Description: In this experiment, the present inventors determined the activation status of JAK3 in CD4^+ T cells which were activated through the TCR subsequent to CD4 ligation.
Briefly, the purified CD4^+ T cells were incubated with or without gp120 and anti-gp120 antibody or anti-CD4 for 1 hour at 37° C. 3×10^6 cells per well were incubated at 37° C. in an anti-CD3 mAb coated (anti-CD3, OKT3, 50 μg/ml, ATCC) 12-well plate. Cells were harvested after various times and lysed in Tris-buffered saline (TBS) containing 1% NP-40, phosphatase inhibitors and protease inhibitors. After micro centrifugation, the post-nuclear lysates were used for immunoprecipitation with anti-JAK3 polyclonal antibody (anti-JAK3, 10 μl, Santa Cruz Biotechnology). The antibody-protein complex was pelleted using Sepharose-conjugated Protein A (Sigma) boiled in sample buffer (0.4% SDS, 3% glycerol and 1% β-mercaptoethanol (2-ME)) and the proteins were separated by 7.5% SDS-PAGE. The proteins were transferred to nitrocellulose membrane and immunoblotted with antiphosphotyrosine mAb (anti-P-Tyr, Ab-2, Oncogene Science) Positive protein bands were detected with horseradish peroxidase (HRP)-conjugated goat anti-mouse IgG (Jackson ImmunoResearch) and SuperSignal Substrate (SSS, Pierce). Membranes were stripped with 62.5 mM Tris-HCl, pH 6.7, containing 10 mM 2-ME, and 2% SDS, immunoblotted with anti-JAK3, and developed with HRP-conjugated protein A and SSS.
In some experiments, 1.5×10^6 cell equivalents of post-nuclear lysate were boiled with sample buffer and separated by 7.5% SDS-PAGE. Nitrocellulose membrane was immunoblotted with (anti-JAK3 and then stripped and immunoblotted with anti-actin mAb (anti-actin, Sigma), as described above. Optical density (O.D.) of positive bands was measured with the Stratagene Eagle Eye II.

IL-2R (α-chain, CD25) = test: Activation-induced IL-2R (CD25) expression on CD4 primed T cells by flow cytometry; type: cell-based, human; details: 20 U/ml cytokine; 24 hours; FIGS. 2A, 2B
Description: Expression of high affinity IL-2R (CD25) was also analyzed in CD4 primed T cells. To determine the expression of IL-2R (α-chain, CD25), the culture plates were set up as described in Example 1 and incubated at 37° C. for 24 hours. 2×10^5 cells were stained with FITC-conjugated anti-CD25 mAb (Pharmingen) and analyzed by flow cytometry (Coulter XL).

CD4 = CD4 (Homo sapiens, UniProt P01730); details: ligation of CD4; literature; cited from earlier work
JAK1 = JAK1 activation in T cells stimulated through TCR/CD3 with or without prior CD4 ligation; type: cell-based, human; details: CD4 ligation before TCR/CD3 stimulation; FIG. 5
Text: Another Janus family kinase, JAK1, associates with the β chain of IL-2R and with the α chains of IL-4R and IL-7R, and is autophosphorylated upon activation (Johnston et al. (1994) Nature, 370:151; and Russell et al. (1994) Science, 270:797).

HIV-1 LTR = test: HIV-1 LTR-luciferase activity in resting CD4+ T cells; type: cell-based; details: STAT5 expression vector or IL-2 for 1 hour, FIG. 17
Text: Resting CD4^+ T cells were transfected with a construct containing luciferase under the control of HIV-1 LTR or a control luciferase construct (Dual-luciferase© Reporter Assay System, Promega, Madison, Wis.). The cells were also optionally transfected with an expression vector encoding STAT5. […] The luciferase activity of the cellular lysates was subsequently measured.

With `O.O.O.O.O.O.O.O.O.O=C([O-])[C@@H]1[O][Sb]2([O-])([O][Sb]34([OH])[O][C@H]([C@H](O)CO)[C@H]([O]3)[C@H](C(=O)[O-])[O]4)[O][C@H]([C@H](O)CO)[C@@H]1[O]2.[Na+].[Na+].[Na+]` [pentostam, stibogluconate sodium] as the molecule, how does the “cellular protein tyrosine phosphatase (PTP) inhibition, particularly PTP1B” value [1] read?
The value was “inhibit”.

With “IL-6: cytokine that binds to receptors on T cells which lack γc” as the molecule, how does the “reversal of inhibition of proliferation at higher cytokine concentrations” value [2] read?
The value was “did not reverse the inhibition of proliferation”.

Which results are given for “IL-7: cytokine which binds to receptors on T cells having γc; Genzyme”?
JAK3 expression in anti-CD3 stimulated HIV infected T cells (JAK3 [3]; versus stimulated HIV-infected cells without cytokine): significantly increased; also recorded: increases JAK3 expression; JAK3 expression in anti-CD3 stimulated mock-infected T cells (JAK3 [3]; versus stimulated cells without cytokine): increased JAK3 expression slightly; reversal of gp120 or anti-CD4 induced inhibition of JAK3 expression and activation (JAK3 [4]): completely reversed; anti-TCR induced proliferative response of CD4-ligated T cells [2]: restored the proliferative response; activation-induced CD25 expression on CD4 primed T cells (IL-2R (α-chain, CD25)): restored activation-induced CD25 expression

For “gp120: HIV surface glycoprotein, crosslinked with anti-gp120 antibody”, which “TCR/CD3-induced IL-2R expression, IL-2 production, and proliferation” value (CD4) is on record?
The value was “inhibit”.

And the “extent of inhibition of JAK3 expression and activation” value (JAK3 [4]; CD4 ligation before anti-CD3 stimulation, FIG. 3A)?
The value was “incomplete”.

And the “TCR/CD3-induced expression and phosphorylation of JAK3” value (JAK3 [4]; CD4 ligation before anti-CD3 stimulation, FIGS. 3A, 3B)?
The value was “inhibits”.

And the “activation status of JAK1” value (JAK1)?
Its value is “did not significantly change”.

B1: IL-4: cytokine which binds to receptors on T cells having γc; R&D Systems (protein, UniProt P05112 25-153, looked up)
Interleukin-4: HKCDITLQEIIKTLNSLTEQKTLCTELTVTDIFAASKNTTEKETFCRAATVLRQFYSHHEKDTRCLGATAQQFHRHKQLIRFLKRLDRNLWGLAGLNSCPVKEANQSTLENFLERLKTIMREKYSKCSS
With B1 as the molecule, how does the “reversal of gp120 or anti-CD4 induced inhibition of JAK3 expression and activation” value (JAK3 [4]) read?
Its value is “completely reversed”.

What about the “anti-TCR induced proliferative response of CD4-ligated T cells” value [2] of the same molecule?
The value was “restored the proliferative response”.

And the “activation-induced CD25 expression on CD4 primed T cells” value (IL-2R (α-chain, CD25))?
The value was “restored activation-induced CD25 expression”.

B2: IL-12: cytokine that binds to receptors on T cells which lack γc (protein, UniProt P29459 23-219; P29460 23-328, looked up)
Interleukin-12 subunit alpha: RNLPVATPDPGMFPCLHHSQNLLRAVSNMLQKARQTLEFYPCTSEEIDHEDITKDKTSTVEACLPLELTKNESCLNSRETSFITNGSCLASRKTSFMMALCLSSIYEDLKMYQVEFKTMNAKLLMDPKRQIFLDQNMLAVIDELMQALNFNSETVPQKSSLEEPDFYKTKIKLCILLHAFRIRAVTIDRVMSYLNAS
Interleukin-12 subunit beta: IWELKKDVYVVELDWYPDAPGEMVVLTCDTPEEDGITWTLDQSSEVLGSGKTLTIQVKEFGDAGQYTCHKGGEVLSHSLLLLHKKEDGIWSTDILKDQKEPKNKTFLRCEAKNYSGRFTCWWLTTISTDLTFSVKSSRGSSDPQGVTCGAATLSAERVRGDNKEYEYSVECQEDSACPAAEESLPIEVMVDAVHKLKYENYTSSFFIRDIIKPDPPKNLQLKPLKNSRQVEVSWEYPDTWSTPHSYFSLTFCVQVQGKSKREKKDRVFTDKTSATVICRKNASISVRAQDRYYSSSWSEWASVPCS
With B2 as the molecule, how does the “reversal of inhibition of proliferation at higher cytokine concentrations” value [2] read?
The value was “did not reverse the inhibition of proliferation”.

B3: STAT5: over-expressed from an expression vector encoding STAT5 (protein, UniProt P42229 1-794, looked up)
Signal transducer and …: MAGWIQAQQLQGDALRQMQVLYGQHFPIEVRHYLAQWIESQPWDAIDLDNPQDRAQATQLLEGLVQELQKKAEHQVGEDGFLLKIKLGHYATQLQKTYDRCPLELVRCIRHILYNEQRLVREANNCSSPAGILVDAMSQKHLQINQTFEELRLVTQDTENELKKLQQTQEYFIIQYQESLRIQAQFAQLAQLSPQERLSRETALQQKQVSLEAWLQREAQTLQQYRVELAEKHQKTLQLLRKQQTIILDDELIQWKRRQQLAGNGGPPEGSLDVLQSWCEKLAEIIWQNRQQIRRAEHLCQQLPIPGPVEEMLAEVNATITDIISALVTSTFIIEKQPPQVLKTQTKFAATVRLLVGGKLNVHMNPPQVKATIISEQQAKSLLKNENTRNECSGEILNNCCVMEYHQATGTLSAHFRNMSLKRIKRADRRGAESVTEEKFTVLFESQFSVGSNELVFQVKTLSLPVVVIVHGSQDHNATATVLWDNAFAEPGRVPFAVPDKVLWPQLCEALNMKFKAEVQSNRGLTKENLVFLAQKLFNNSSSHLEDYSGLSVSWSQFNRENLPGWNYTFWQWFDGVMEVLKKHHKPHWNDGAILGFVNKQQAHDLLINKPDGTFLLRFSDSEIGGITIAWKFDSPERNLWNLKPFTTRDFSIRSLADRLGDLSYLIYVFPDRPKDEVFSKYYTPVLAKAVDGYVKPQIKQVVPEFVNASADAGGSSATYMDQAPSPAVCPQAPYNMYPQNPDHVLDQDGEFDLDETMDVARHVEELLRRPMDSLDSRLSPPAGLFTSARGSLS
With B3 as the molecule, how does the “activity from the HIV-1 LTR (luciferase activity)” value (HIV-1 LTR) read?
The value was “increased activity”.

From patent publication US20050124645A1, “Methods and compositions for increasing CD4lymphocyte immune responsiveness” (priority 1998, published 2005)
